Experiments:
Test in all cases: relative viability (nuclei count vs DMSO), 5 days (fraction); higher = more cells survive
[1] = compound: CC1CC(=O)N(C2=CN=C(N=C2N1C3CCCC3)NC4=C(C=C(C=C4)C(=O)NC5CCN(CC5)C)OC)C [NPK76-II-72-1] + CS(=O)(=O)N1CCN(Cc2cc3nc(-c4cccc5[nH]ncc45)nc(N4CCOCC4)c3s2)CC1 [Pictilisib] (partner 1 µM)
Procedure, shortened: (§1)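 A single step with final 0.05% Triton X-100, 1% formaldehyde and 1 ug/ml Hoechst fixed the cells and stained nuclei 5 days after treatment. Lung cancer cell lines in 1536-well plates had been treated by pin tool the day after seeding with one drug alone or a fixed anchor-drug dose plus five library-drug doses (not always all listed) in √10 steps, and nuclei were counted on 4× images. Relative viability is the ratio of nuclei in treated wells to nuclei in vehicle wells, taken as the median of duplicate plates.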

[2] = compound: CC1CC(=O)N(C2=CN=C(N=C2N1C3CCCC3)NC4=C(C=C(C=C4)C(=O)NC5CCN(CC5)C)OC)C [NPK76-II-72-1] + CCNC(=O)c1noc(-c2cc(C(C)C)c(O)cc2O)c1-c1ccc(CN2CCOCC2)cc1 [Luminespib] (partner 0.01 µM)
Procedure, shortened: as §1

BI-2536 + OSI-027 = compound: CC[C@@H]1C(=O)N(C)c2cnc(Nc3ccc(C(=O)NC4CCN(C)CC4)cc3OC)nc2N1C1CCCC1 [BI-2536] + COc1cccc2cc(-c3nc([C@H]4CC[C@H](C(=O)O)CC4)n4ncnc(N)c34)[nH]c12 [OSI-027] (partner 0.5 µM)
Procedure, shortened: as §1

BI-2536 + AZD7762 = compound: CC[C@@H]1C(=O)N(C)c2cnc(Nc3ccc(C(=O)NC4CCN(C)CC4)cc3OC)nc2N1C1CCCC1 [BI-2536] + NC(=O)Nc1cc(-c2cccc(F)c2)sc1C(=O)N[C@H]1CCCNC1 [AZD7762] (partner 0.2 µM)
Procedure, shortened: as §1

Cell Line	relative viability ([1]; first compound 0.01 µM)	relative viability ([1]; first compound 0.03162 µM)	relative viability ([1]; first compound 0.1 µM)	relative viability ([1]; first compound 0.3162 µM)	relative viability ([1]; first compound 1 µM)	relative viability ([2]; first compound 0.01 µM)	relative viability ([2]; first compound 0.03162 µM)	relative viability ([2]; first compound 0.1 µM)	relative viability ([2]; first compound 0.3162 µM)	relative viability ([2]; first compound 1 µM)	relative viability (BI-2536 + OSI-027; first compound 0.01 µM)	relative viability (BI-2536 + OSI-027; first compound 0.03162 µM)	relative viability (BI-2536 + OSI-027; first compound 0.1 µM)	relative viability (BI-2536 + OSI-027; first compound 0.3162 µM)	relative viability (BI-2536 + OSI-027; first compound 1 µM)	relative viability (BI-2536 + AZD7762; first compound 0.01 µM)	relative viability (BI-2536 + AZD7762; first compound 0.03162 µM)	relative viability (BI-2536 + AZD7762; first compound 0.1 µM)	relative viability (BI-2536 + AZD7762; first compound 0.3162 µM)	relative viability (BI-2536 + AZD7762; first compound 1 µM)
A549	0.469	0.509	0.535	0.529	0.572															
COR-L23	0.742	0.895	0.831	0.763	0.869	0.655	0.789	0.746	0.711	0.761	0.864	0.484	0.216	0.107	0.139					
COR-L 105	0.424	0.467	0.423	0.411	0.451	0.782	0.642	0.934	0.508	0.704	0.69	0.596	0.35	0.254	0.214					
Calu-6	0.894	1.01	0.953	0.757	1.05															
EBC-1	0.404	0.432	0.536	0.347	0.456															
HCC-78		0.233	0.207		0.182						0.376	0.359	0.317	0.363	0.198	0.75	0.576	0.687	0.433	0.249
HCC-366	0.117	0.117	0.128	0.196	0.186						0.835	0.856	0.146	0.0244	0.0284	0.246	0.37	0.156	0.017	0.0177
IA-LM	0.314	0.363	0.33	0.243	0.334															
NCI-H520	0.234	0.267	0.374	0.267	0.291	0.206	0.24	0.285	0.181	0.245	0.277	0.289	0.195	0.292	0.2					
NCI-H522						1.05	1.1	1.42	1.14	1.27	0.752	0.72	0.445	0.399	0.372	0.826	0.879	0.944	0.302	0.365
NCI-H661	0.416	0.422	0.422		0.508	0.964	0.943	0.892	0.906	0.933	0.697	0.379	0.35	0.208	0.209					
NCI-H1299	0.79	0.738	0.839	0.702	0.777															
NCI-H1563	0.658	0.66	0.602	0.599	0.665	0.5	0.627	0.578	0.519	0.504	0.811	0.792	0.704	0.535	0.541					
NCI-H1623						0.448	0.382	0.513	0.421	0.574	0.433	0.392	0.39	0.233	0.294					
NCI-H1648											0.258	0.25	0.233	0.203	0.24	0.767	0.775	0.432	0.332	0.224
NCI-H1650	0.569	0.534	0.596	0.547	0.649	0.185	0.198	0.207	0.194	0.194	0.636	0.564	0.169	0.18	0.159					
NCI-H1703	0.257	0.224	0.298	0.283	0.254											0.141	0.174	0.0928	0.0808	0.0722
NCI-H2009	0.812	0.974	0.897	0.781	0.886	0.976	1.1	1.01	1.07	1.04	0.613	0.543	0.259	0.173	0.154					
NCI-H2023	0.264	0.227	0.244	0.257	0.253	0.766	1.03	0.871	0.594	0.888	0.398	0.406	0.189	0.0915	0.0907					
NCI-H2228	0.359	0.497	0.503	0.402	0.483	0.177	0.143	0.174	0.133	0.166	0.576	0.437	0.141	0.124	0.26					
NCI-H2342						0.653	0.6	0.67	0.548	0.709	0.664	0.546	0.598	0.362	0.367		0.459	0.411	0.267	0.349
SK-LU-1	0.532	0.648	0.514	0.645	0.584	0.181	0.206	0.213	0.196	0.209	0.341	0.278	0.198	0.172	0.146					
SK-MES-1	0.429	0.384	0.295	0.376	0.318	0.827	0.79	0.646	0.688	0.857	0.601	0.458	0.178	0.173	0.182					
SW 1573	0.425	0.497	0.498	0.455	0.463	0.333	0.218	0.278	0.383	0.21	0.681	0.44	0.133	0.0966	0.0839					
